For orientation: Ki means a dissociation constant, usually derived from enzyme kinetics or from competition with a known ligand.

The values that follow come from US7329652B2, “Diaminotriazole compounds useful as protein kinase inhibitors” (Vertex Pharamaceuticals Incorporated, priority 2004, dated 2008).

Where only a bound is given, the exact number is not on record here.

Experiment [1] has as its target JAK-2 enzyme (Homo sapiens, UniProt O60674). The experiment in a line: JAK2 inhibition assay (radiometric 33P filter assay). It is filed as biochemical. The note with it: 15 μM poly(Glu)4Tyr, 12 μM ATP; read-out: JAK2 inhibition data (Ki). As to the method: (§1) Compounds were screened for their ability to inhibit JAK using the assay shown below. Reactions were carried out in a kinase buffer containing 100 mM HEPES (pH 7.4), 1 mM DTT, 10 mM MgCl2, 25 mM NaCl, and 0.01% BSA.
(§2) Substrate concentrations in the assay were 5 μM ATP (200 uCi/μmole ATP) and 1 μM poly(Glu)4Tyr. Reactions were carried out at 25° C. and 1 nM JAK3.
(§3) To each well of a 96 well polycarbonate plate was added 1.5 μl of a candidate JAK3 inhibitor along with 50 μl of kinase buffer containing 2 μM poly(Glu)4Tyr and 10 μM ATP. This was then mixed and 50 μl of kinase buffer containing 2 nM JAK3 enzyme was added to start the reaction. After 20 minutes at room temperature (25° C.), the reaction was stopped with 50 μl of 20% trichloroacetic acid (TCA) that also contained 0.4 mM ATP. The entire contents of each well were then transferred to a 96 well glass fiber filter plate using a TomTek Cell Harvester. After washing, 60 μl of scintillation fluid was added and ^33P incorporation detected on a Perkin Elmer TopCount.
The assays were as described above in Example 25 except that JAK-2 enzyme was used, the final poly(Glu)4Tyr concentration was 15 μM, and final ATP concentration was 12 μM.

The target of experiment [2] is T1, JAK3 (Homo sapiens, UniProt P52333).
T1 sequence (P52333 1-1124): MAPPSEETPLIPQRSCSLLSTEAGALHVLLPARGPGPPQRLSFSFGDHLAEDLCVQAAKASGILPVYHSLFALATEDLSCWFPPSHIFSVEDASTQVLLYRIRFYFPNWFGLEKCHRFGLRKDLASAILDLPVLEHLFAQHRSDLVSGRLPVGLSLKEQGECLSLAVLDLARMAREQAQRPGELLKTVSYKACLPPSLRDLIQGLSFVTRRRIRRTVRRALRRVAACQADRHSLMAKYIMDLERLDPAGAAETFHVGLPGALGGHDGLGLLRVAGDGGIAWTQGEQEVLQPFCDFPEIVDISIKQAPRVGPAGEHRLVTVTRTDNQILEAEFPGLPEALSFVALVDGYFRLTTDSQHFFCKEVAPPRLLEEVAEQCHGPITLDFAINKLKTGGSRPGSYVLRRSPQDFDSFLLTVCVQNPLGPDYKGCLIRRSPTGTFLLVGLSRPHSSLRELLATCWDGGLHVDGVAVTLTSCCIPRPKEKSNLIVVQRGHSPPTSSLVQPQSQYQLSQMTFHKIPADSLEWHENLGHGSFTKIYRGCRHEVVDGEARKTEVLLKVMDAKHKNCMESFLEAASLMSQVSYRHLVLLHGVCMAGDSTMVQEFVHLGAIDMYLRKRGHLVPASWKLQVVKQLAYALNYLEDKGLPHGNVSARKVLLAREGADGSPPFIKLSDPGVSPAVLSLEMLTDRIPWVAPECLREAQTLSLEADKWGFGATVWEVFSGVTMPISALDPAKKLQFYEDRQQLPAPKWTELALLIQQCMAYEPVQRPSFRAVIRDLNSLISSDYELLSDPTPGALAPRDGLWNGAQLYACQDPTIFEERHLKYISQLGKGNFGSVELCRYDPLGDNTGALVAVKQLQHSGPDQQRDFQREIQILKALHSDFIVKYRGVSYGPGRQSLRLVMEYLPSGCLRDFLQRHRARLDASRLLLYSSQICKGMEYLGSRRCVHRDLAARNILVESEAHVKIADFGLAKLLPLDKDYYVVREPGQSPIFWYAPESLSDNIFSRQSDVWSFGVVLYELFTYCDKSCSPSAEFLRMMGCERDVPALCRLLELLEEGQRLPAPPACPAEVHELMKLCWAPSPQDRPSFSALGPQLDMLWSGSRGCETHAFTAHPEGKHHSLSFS
Put plainly: JAK3 inhibition assay (radiometric 33P filter assay). It is filed as biochemical. The settings on record: 1 μM poly(Glu)4Tyr, 5 μM ATP, 1 nM JAK3, 25° C.; read-out: JAK3 inhibition data (Ki). As to the method: as §1, §2, §3

Chain of JAK-2 enzyme (O60674 whole entry, species assumed): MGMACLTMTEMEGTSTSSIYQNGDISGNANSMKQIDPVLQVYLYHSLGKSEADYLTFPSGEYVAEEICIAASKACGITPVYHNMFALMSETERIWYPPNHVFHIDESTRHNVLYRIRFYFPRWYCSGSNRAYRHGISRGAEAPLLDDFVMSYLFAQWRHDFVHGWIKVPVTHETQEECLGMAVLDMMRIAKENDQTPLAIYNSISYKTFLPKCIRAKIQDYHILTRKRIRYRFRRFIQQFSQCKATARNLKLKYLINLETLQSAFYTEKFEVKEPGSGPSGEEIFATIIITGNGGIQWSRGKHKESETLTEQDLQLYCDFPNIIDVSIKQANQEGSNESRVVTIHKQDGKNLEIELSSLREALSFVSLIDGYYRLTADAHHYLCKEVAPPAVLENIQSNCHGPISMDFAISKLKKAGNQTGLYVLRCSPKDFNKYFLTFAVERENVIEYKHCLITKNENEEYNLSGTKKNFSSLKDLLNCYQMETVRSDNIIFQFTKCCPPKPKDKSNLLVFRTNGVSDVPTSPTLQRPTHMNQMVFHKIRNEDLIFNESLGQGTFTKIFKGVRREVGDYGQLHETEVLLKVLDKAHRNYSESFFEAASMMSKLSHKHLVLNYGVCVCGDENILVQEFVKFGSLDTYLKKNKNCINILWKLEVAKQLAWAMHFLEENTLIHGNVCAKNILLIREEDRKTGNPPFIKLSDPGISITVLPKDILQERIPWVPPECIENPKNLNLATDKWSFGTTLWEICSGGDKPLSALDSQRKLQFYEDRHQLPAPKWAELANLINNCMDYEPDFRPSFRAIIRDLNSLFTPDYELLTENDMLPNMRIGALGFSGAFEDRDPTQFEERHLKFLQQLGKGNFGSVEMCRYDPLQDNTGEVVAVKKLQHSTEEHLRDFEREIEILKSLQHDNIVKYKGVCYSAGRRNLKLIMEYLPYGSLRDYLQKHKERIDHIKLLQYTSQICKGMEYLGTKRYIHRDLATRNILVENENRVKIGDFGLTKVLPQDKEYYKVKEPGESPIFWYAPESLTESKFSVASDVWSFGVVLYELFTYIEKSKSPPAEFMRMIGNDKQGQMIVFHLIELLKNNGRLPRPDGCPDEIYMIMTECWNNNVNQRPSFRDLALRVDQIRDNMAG

For the compound `CCOC(=O)CCNC(=O)Nc1ccc(Nc2nc(N)n(-c3cc(N4C[C@@H](C)N(C(C)=O)[C@@H](C)C4)ncn3)n2)cc1` [Compound 72], the Ki in experiment [1] and in experiment [2] was under 50 nM throughout.

Consider `CC(=O)N1[C@H](C)CN(c2cc(-n3nc(Nc4ccc(N5CCOCC5)cc4)nc3N)ccn2)C[C@@H]1C` [Compound 17], for which the Ki in experiment [1] and in experiment [2] was under 50 nM each time.

For the compound `CC(=O)Nc1ccc(Nc2nc(N)n(-c3cc(N4C[C@@H](C)N(C(C)=O)[C@@H](C)C4)ncn3)n2)cc1` [Compound 112], the Ki in experiment [1] and in experiment [2] was under 50 nM throughout.

Take `Nc1nc(Nc2ccc(N3CCOCC3)cc2)nn1-c1ccnc(N2CCCCCC2)c1` [Compound 19]: the Ki in experiment [1] and in experiment [2] was under 50 nM in each case.

Regarding `CC(=O)N1CCCN(c2cc(-n3nc(Nc4ccc(NC(=O)c5ccoc5)cc4)nc3N)ncn2)CC1` [Compound 29], the Ki in experiment [1] and in experiment [2] was under 50 nM in each case.

On to `CC(=O)N1CCCN(c2cc(-n3nc(Nc4ccc(N(C)C(=O)OCC(C)(C)C)cc4)nc3N)ncn2)CC1` [Compound 132], for which the Ki in experiment [1] and in experiment [2] was under 50 nM in each case.

`CC(=O)N1CCCN(c2cc(-n3nc(Nc4ccc(NC(=O)c5cccnc5)cc4)nc3N)ncn2)CC1` [Compound 27]: the Ki in experiment [1] and in experiment [2] was under 50 nM throughout.

On to `CC(=O)Nc1ccc(Nc2nc(N)n(-c3ccnc(N4C[C@@H](C)N(C(C)=O)[C@@H](C)C4)c3)n2)cc1` [Compound 35, N-(4-{1-[2-(4-Acetyl-3,5-dimethyl-piperazin-1-yl)-pyridin-4-yl]-5-amino-1H-[1,2,4]triazol-3-ylamino}-phenyl)-acetamide], for which the Ki in experiment [1] and in experiment [2] was under 50 nM each time.

As for `CCCOC(=O)N(C)c1ccc(Nc2nc(N)n(-c3cc(N4C[C@@H](C)N(C(C)=O)[C@@H](C)C4)ncn3)n2)cc1` [Compound 118], the Ki in experiment [1] and in experiment [2] was under 50 nM each time.

As to `CC(=O)N1[C@H](C)CN(c2cc(-n3nc(Nc4ccc(N5CCN(C(=O)NC(C)C)CC5)cc4)nc3N)ncn2)C[C@@H]1C` [Compound 62], the Ki in experiment [1] and in experiment [2] was under 50 nM each time.

In the case of `CCOC(=O)N1CCN(c2ccc(Nc3nc(N)n(-c4cc(NC)ncn4)n3)cc2)CC1` [Compound 167], the Ki in experiment [1] and in experiment [2] was under 50 nM in each case.

For `CCCOC(=O)N1CCN(c2ccc(Nc3nc(N)n(-c4cc(N5CCCN(C(=O)CC#N)CC5)ncn4)n3)cc2)CC1` [Compound 125], the Ki in experiment [1] and in experiment [2] was under 50 nM throughout.

As for `CC(=O)N1CCCN(c2cc(-n3nc(Nc4ccc(N5CCN(C(=O)OC(C)C)CC5)cc4)nc3N)ncn2)CC1` [Compound 48], the Ki in experiment [1] and in experiment [2] was under 50 nM in each case.

Regarding `CCOC(=O)Nc1ccc(Nc2nc(N)n(-c3ccnc(N4C[C@@H](C)N(C(C)=O)[C@@H](C)C4)c3)n2)cc1` [Compound 101], the Ki in experiment [1] and in experiment [2] was under 50 nM each time.

Consider `Nc1nc(Nc2ccc(N3CCOCC3)cc2)nn1-c1cc(N2CCN3C(=O)CC[C@@H]3C2)ncn1` [Compound 23], for which the Ki in experiment [1] and in experiment [2] was under 50 nM throughout.

For `COC(=O)N(C)c1ccc(Nc2nc(N)n(-c3cc(N4CCCN(C(C)=O)CC4)ncn3)n2)cc1` [Compound 126], the inhibitory constant (Ki) in experiment [1] and in experiment [2] was under 50 nM throughout.

For `CC(=O)N1CCCN(c2cc(-n3nc(Nc4ccc(NC(=O)NC(C)(C)C)cc4)nc3N)ncn2)CC1` [Compound 87], the Ki in experiment [1] and in experiment [2] was under 50 nM each time.

In the case of `CC(=O)Nc1ccc(Nc2nc(N)n(-c3cc(N4CCCN(C(C)=O)CC4)ncn3)n2)cc1` [Compound 11], the inhibitory constant (Ki) in experiment [1] and in experiment [2] was under 50 nM throughout.

Consider `CC(=O)N1CCCN(c2cc(-n3nc(Nc4ccc(N5CCN(C(=O)C6CCC6)CC5)cc4)nc3N)ncn2)CC1` [Compound 40], for which the Ki in experiment [1] and in experiment [2] was under 50 nM each time.

On to `CC(=O)N1[C@H](C)CN(c2cc(-n3nc(Nc4ccc(N5CCN(C(=O)NC(C)(C)C)CC5)cc4)nc3N)ncn2)C[C@@H]1C` [Compound 63], for which the Ki in experiment [1] and in experiment [2] was under 50 nM each time.

Regarding `CCCOC(=O)N1CCN(c2ccc(Nc3nc(N)n(-c4ccnc(N5CCCN(C(=O)OCC)CC5)c4)n3)cc2)CC1` [Compound 159], the Ki in experiment [1] and in experiment [2] was 50 to 500 nM in each case.

`CCOC(=O)N1CCN(c2ccc(Nc3nc(N)n(-c4ccnc(N5CCCN(C(=O)OCC)CC5)c4)n3)cc2)CC1` [Compound 149]: the Ki in experiment [1] and in experiment [2] was 50 to 500 nM in each case.

`CCCS(=O)(=O)N1CCCN(c2cc(-n3nc(Nc4ccc(N5CCN(C(=O)OCC)CC5)cc4)nc3N)ncn2)CC1` [Compound 146]: the inhibition constant (Ki) in experiment [1] and in experiment [2] was 50 to 500 nM throughout.

As for `CC(=O)N1CCCN(c2cc(-n3nc(Nc4ccc(NC(=O)OCC(C)C)cc4)nc3N)ncn2)CC1` [Compound 94], the Ki in experiment [1] and in experiment [2] was under 50 nM each time.

Turning to `CC(=O)N1[C@H](C)CN(c2cc(-n3nc(Nc4ccc(N5CCN(C(=O)OCC(C)(C)C)CC5)cc4)nc3N)ccn2)C[C@@H]1C` [Compound 142], the Ki in experiment [1] and in experiment [2] was under 50 nM each time.

With `CCS(=O)(=O)N1CCN(c2ccc(Nc3nc(N)n(-c4ccnc(N5CCCN(C(=O)OC)CC5)c4)n3)cc2)CC1` [Compound 152], the Ki in experiment [1] and in experiment [2] was 50 to 500 nM in each case.

With `CCOC(=O)Nc1ccc(Nc2nc(N)n(-c3cc(N4C[C@@H](C)N(C(C)=O)[C@@H](C)C4)ncn3)n2)cc1` [Compound 76], the inhibition constant Ki in experiment [1] and in experiment [2] was under 50 nM throughout.

For `CCCC1CCC(C(=O)Nc2ccc(Nc3nc(N)n(-c4cc(N5CCCN(C(C)=O)CC5)ncn4)n3)cc2)CC1` (stereo not drawn) [Compound 25], the Ki in experiment [1] and in experiment [2] was 50 to 500 nM throughout.

Regarding `CCCNC(=O)Nc1ccc(Nc2nc(N)n(-c3cc(N4C[C@@H](C)N(C(C)=O)[C@@H](C)C4)ncn3)n2)cc1` [Compound 68], the Ki in experiment [1] and in experiment [2] was under 50 nM each time.

Consider `CC(=O)N1[C@H](C)CN(c2cc(-n3nc(Nc4ccc(NC(=O)OC(C)C)cc4)nc3N)ncn2)C[C@@H]1C` [Compound 78], for which the Ki in experiment [1] and in experiment [2] was under 50 nM throughout.

On to `CS(=O)(=O)N1CCCN(c2cc(-n3nc(Nc4ccc(N5CCOCC5)cc4)nc3N)ncn2)CC1` [Compound 7], for which the Ki in experiment [1] and in experiment [2] was under 50 nM in each case.

For the compound `CC(=O)N1[C@H](C)CN(c2cc(-n3nc(Nc4ccc(NC(=O)Nc5c(F)cccc5F)cc4)nc3N)ncn2)C[C@@H]1C` [Compound 73], the Ki in experiment [1] and in experiment [2] was under 50 nM each time.

Consider `COC(=O)N1CCN(c2ccc(Nc3nc(N)n(-c4cc(N5C[C@@H](C)N(C(C)=O)[C@@H](C)C5)ncn4)n3)cc2)CC1` [Compound 53], for which the Ki in experiment [1] and in experiment [2] was under 50 nM throughout.

For `CC(=O)N1[C@H](C)CN(c2cc(-n3nc(Nc4ccc(NC(=O)NC(C)C)cc4)nc3N)ccn2)C[C@@H]1C` [Compound 107], the Ki in experiment [1] and in experiment [2] was under 50 nM each time.

For `CC(=O)N1CCCN(c2cc(-n3nc(Nc4ccc(NC(=O)C5CCC(C)CC5)cc4)nc3N)ncn2)CC1` (stereo not drawn) [Compound 24], the Ki in experiment [1] and in experiment [2] was under 50 nM throughout.

Consider `CC(=O)N1[C@H](C)CN(c2cc(-n3nc(Nc4ccc(N5CCOCC5)cc4)nc3N)ncn2)C[C@@H]1C` [Compound 16], for which the Ki in experiment [1] and in experiment [2] was under 50 nM each time.
